Test system: NCI-H929 complex spheroids, viability % test/control
Test: Anticancer human tumor NCI-H929 cell line growth inhibition [RAS];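 further: compound exposure lasted seven days before viability was read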;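 on viability, T/C: 100% = DMSO vehicle control viability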
Conditions: for IC50: curve of first compound; for viability, T/C: stronger effect = lower value
In short: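 Tumour cells grown as complex spheroids with HUVEC endothelial cells and mesenchymal stem cells, treated with RAS pathway inhibitor combinations. Each agent spans half-log steps from near clinical Cmax, or 10 microM where Cmax is unknown.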

[1] = second compound 0.00316 µM, first compound 0.0316 µM
[2] = second compound 0.00316 µM, first compound 0.1 µM
[3] = second compound 0.00316 µM, first compound 0.316 µM
[4] = second compound 0.00316 µM, first compound 1 µM
[5] = second compound 0.01 µM, first compound 0.0316 µM
[6] = second compound 0.01 µM, first compound 0.1 µM
[7] = second compound 0.01 µM, first compound 0.316 µM
[8] = second compound 0.01 µM, first compound 1 µM
[9] = second compound 0.0316 µM, first compound 0.0316 µM
[10] = second compound 0.0316 µM, first compound 0.1 µM
[11] = second compound 0.0316 µM, first compound 0.316 µM
[12] = second compound 0.0316 µM, first compound 1 µM
[13] = second compound 0.1 µM, first compound 0.0316 µM
[14] = second compound 0.1 µM, first compound 0.1 µM
[15] = second compound 0.1 µM, first compound 0.316 µM
[16] = second compound 0.1 µM, first compound 1 µM
[17] = second compound 0.316 µM, first compound 0.0316 µM
[18] = second compound 0.316 µM, first compound 0.1 µM
[19] = second compound 0.316 µM, first compound 0.316 µM
[20] = second compound 0.316 µM, first compound 1 µM
[21] = second compound 1 µM, first compound 0.0316 µM
[22] = second compound 1 µM, first compound 0.1 µM
[23] = second compound 1 µM, first compound 0.316 µM
[24] = second compound 1 µM, first compound 1 µM
[25] = second compound 0.00316 µM, first compound 3.16 µM
[26] = second compound 0.00316 µM, first compound 10 µM
[27] = second compound 0.01 µM, first compound 3.16 µM
[28] = second compound 0.01 µM, first compound 10 µM
[29] = second compound 0.0316 µM, first compound 3.16 µM
[30] = second compound 0.0316 µM, first compound 10 µM
[31] = second compound 0.1 µM, first compound 3.16 µM
[32] = second compound 0.1 µM, first compound 10 µM
[33] = second compound 0.316 µM, first compound 3.16 µM
[34] = second compound 0.316 µM, first compound 10 µM
[35] = second compound 1 µM, first compound 3.16 µM
[36] = second compound 1 µM, first compound 10 µM

O=C(c1ccc(F)c(F)c1Nc1ccc(I)cc1F)N1CC(O)([C@@H]2CCCCN2)C1 + C=CC(=O)N1CCN(c2nc(OCC3CCCN3C)nc3c(F)c(-c4nc(N)cc(C)c4C(F)(F)F)c(Cl)cc23)C(C)C1
IC50 (second compound 0.00316 µM): > 1000 nM
IC50 (second compound 0.01 µM): > 1000 nM
IC50 (second compound 0.0316 µM): > 1000 nM
IC50 (second compound 0.1 µM): > 1000 nM
IC50 (second compound 0.316 µM): > 1000 nM
IC50 (second compound 1 µM): > 1000 nM
viability, T/C (second compound 0.00316 µM, first compound 0.00316 µM): 101%
viability, T/C (second compound 0.00316 µM, first compound 0.01 µM): 92.1%
viability, T/C [1]: 85.7%
viability, T/C [2]: 88.7%
viability, T/C [3]: 112%
viability, T/C [4]: 55.4%
viability, T/C (second compound 0.01 µM, first compound 0.00316 µM): 102%
viability, T/C (second compound 0.01 µM, first compound 0.01 µM): 91.2%
viability, T/C [5]: 83.5%
viability, T/C [6]: 94.2%
viability, T/C [7]: 112%
viability, T/C [8]: 58.3%
viability, T/C (second compound 0.0316 µM, first compound 0.00316 µM): 96.9%
viability, T/C (second compound 0.0316 µM, first compound 0.01 µM): 96.8%
viability, T/C [9]: 88.6%
viability, T/C [10]: 95.2%
viability, T/C [11]: 112%
viability, T/C [12]: 57.4%
viability, T/C (second compound 0.1 µM, first compound 0.00316 µM): 99.2%
viability, T/C (second compound 0.1 µM, first compound 0.01 µM): 93.4%
viability, T/C [13]: 89.1%
viability, T/C [14]: 93.3%
viability, T/C [15]: 113%
viability, T/C [16]: 56.7%
viability, T/C (second compound 0.316 µM, first compound 0.00316 µM): 97.8%
viability, T/C (second compound 0.316 µM, first compound 0.01 µM): 101%
viability, T/C [17]: 84.3%
viability, T/C [18]: 92.7%
viability, T/C [19]: 117%
viability, T/C [20]: 54.4%
viability, T/C (second compound 1 µM, first compound 0.00316 µM): 106%
viability, T/C (second compound 1 µM, first compound 0.01 µM): 97.5%
viability, T/C [21]: 91.3%
viability, T/C [22]: 104%
viability, T/C [23]: 116%
viability, T/C [24]: 54%

CCC(CC)c1cc(NC2CCC(N)C2)n2nccc2n1 (stereo unspecified) + C=CC(=O)N1CCN(c2nc(OCC3CCCN3C)nc3c(F)c(-c4nc(N)cc(C)c4C(F)(F)F)c(Cl)cc23)C(C)C1
IC50 (second compound 0.00316 µM): 1720 nM
IC50 (second compound 0.01 µM): 1770 nM
IC50 (second compound 0.0316 µM): 1750 nM
IC50 (second compound 0.1 µM): 1760 nM
IC50 (second compound 0.316 µM): 1770 nM
IC50 (second compound 1 µM): 1780 nM
viability, T/C [1]: 100%
viability, T/C [2]: 91.7%
viability, T/C [3]: 93.5%
viability, T/C [4]: 93.2%
viability, T/C [25]: 1.09%
viability, T/C [26]: 0.82%
viability, T/C [5]: 96.3%
viability, T/C [6]: 98.3%
viability, T/C [7]: 97.9%
viability, T/C [8]: 97.9%
viability, T/C [27]: 1.58%
viability, T/C [28]: 0.56%
viability, T/C [9]: 93.3%
viability, T/C [10]: 95.7%
viability, T/C [11]: 97.3%
viability, T/C [12]: 100%
viability, T/C [29]: 1.12%
viability, T/C [30]: 0.24%
viability, T/C [13]: 95.9%
viability, T/C [14]: 96.1%
viability, T/C [15]: 99.4%
viability, T/C [16]: 99.6%
viability, T/C [31]: 0.2%
viability, T/C [32]: 0.59%
viability, T/C [17]: 98.5%
viability, T/C [18]: 99.4%
viability, T/C [19]: 94.7%
viability, T/C [20]: 101%
viability, T/C [33]: 1%
viability, T/C [34]: 0.48%
viability, T/C [21]: 106%
viability, T/C [22]: 104%
viability, T/C [23]: 97%
viability, T/C [24]: 99.2%
viability, T/C [35]: 0.64%
viability, T/C [36]: 0.11%

CC1(O)CCCC1n1c(=O)c(C(F)F)cc2cnc(NC3CCN(S(C)(=O)=O)CC3)nc21 (stereo unspecified) + C=CC(=O)N1CCN(c2nc(OCC3CCCN3C)nc3c(F)c(-c4nc(N)cc(C)c4C(F)(F)F)c(Cl)cc23)C(C)C1
IC50 (second compound 0.00316 µM): 184 nM
IC50 (second compound 0.01 µM): 190 nM
IC50 (second compound 0.0316 µM): 189 nM
IC50 (second compound 0.1 µM): 192 nM
IC50 (second compound 0.316 µM): 184 nM
IC50 (second compound 1 µM): 182 nM
viability, T/C [1]: 115%
viability, T/C [2]: 101%
viability, T/C [3]: 4.56%
viability, T/C [4]: 8.72%
viability, T/C [25]: 2.59%
viability, T/C [26]: 0.82%
viability, T/C [5]: 112%
viability, T/C [6]: 108%
viability, T/C [7]: 3.89%
viability, T/C [8]: 8.77%
viability, T/C [27]: 3.05%
viability, T/C [28]: 0.57%
viability, T/C [9]: 107%
viability, T/C [10]: 107%
viability, T/C [11]: 3.77%
viability, T/C [12]: 9.13%
viability, T/C [29]: 2.62%
viability, T/C [30]: 0.19%
viability, T/C [13]: 109%
viability, T/C [14]: 109%
viability, T/C [15]: 4.89%
viability, T/C [16]: 8.17%
viability, T/C [31]: 2.43%
viability, T/C [32]: 0.18%
viability, T/C [17]: 113%
viability, T/C [18]: 101%
viability, T/C [19]: 4.58%
viability, T/C [20]: 9.4%
viability, T/C [33]: 2.18%
viability, T/C [34]: 0.46%
viability, T/C [21]: 121%
viability, T/C [22]: 99.8%
viability, T/C [23]: 4.25%
viability, T/C [24]: 7.11%
viability, T/C [35]: 2.09%
viability, T/C [36]: 0.13%

Reference: PubChem BioAssay AID2060884 (Molecular Pharmacology Branch, DTP, NCI, 2025)
